pKi: −log10 of the molar value. Positions of bridges follow the written chain, without caps; N, C: chain ends. Non-standard residues stand in square brackets, D forms with d. Residues, ends and D or L forms follow the SMILES beside them.

For orientation: pKi means −log10 of the Ki, conventionally taken in molar units.

One assay has as its target human SSTR-5 (Homo sapiens, UniProt P35346). Briefly: Somatostatin receptor binding assay, [125I-Tyr11]somatostatin-14, membranes of transfected CHO-K1 cells. Particulars: 0.05 nM [125I-Tyr11]somatostatin-14, 30 min at 30° C., Ki=IC50/[1+(LC/LEC)], read-out: Ki hSSTR-5.
A further assay addresses human SSTR-3 (Homo sapiens, UniProt P32745). The description is as above. Particulars: 0.05 nM [125I-Tyr11]somatostatin-14, 30 min at 30° C., Ki=IC50/[1+(LC/LEC)], read-out: Ki hSSTR-3.

human SSTR-5, sequence (P35346 whole entry): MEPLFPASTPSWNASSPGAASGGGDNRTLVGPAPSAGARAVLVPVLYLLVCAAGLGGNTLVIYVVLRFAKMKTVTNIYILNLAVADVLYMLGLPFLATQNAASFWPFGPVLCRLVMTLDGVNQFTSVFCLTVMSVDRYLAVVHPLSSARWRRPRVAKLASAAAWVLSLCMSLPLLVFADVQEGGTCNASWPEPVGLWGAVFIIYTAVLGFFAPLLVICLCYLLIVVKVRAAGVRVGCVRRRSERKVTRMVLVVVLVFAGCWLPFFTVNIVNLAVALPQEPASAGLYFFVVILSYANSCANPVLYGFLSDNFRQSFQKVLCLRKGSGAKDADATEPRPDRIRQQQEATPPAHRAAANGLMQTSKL
human SSTR-3, sequence (P32745 whole entry): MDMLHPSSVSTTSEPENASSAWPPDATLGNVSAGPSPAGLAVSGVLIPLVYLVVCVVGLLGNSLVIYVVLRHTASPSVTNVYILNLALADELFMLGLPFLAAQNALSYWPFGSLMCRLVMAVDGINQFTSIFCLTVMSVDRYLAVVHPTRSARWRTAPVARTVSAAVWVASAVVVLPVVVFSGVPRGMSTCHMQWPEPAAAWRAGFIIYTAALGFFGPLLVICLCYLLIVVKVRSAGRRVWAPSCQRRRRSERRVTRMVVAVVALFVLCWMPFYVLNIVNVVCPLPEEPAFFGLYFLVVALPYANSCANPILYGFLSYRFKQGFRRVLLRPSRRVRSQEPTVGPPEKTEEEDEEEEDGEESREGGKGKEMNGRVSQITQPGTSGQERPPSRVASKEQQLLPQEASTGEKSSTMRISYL

As to `C[C@@H](O)[C@@H]1NC(=O)[C@H](CCCCN)NC(=O)[C@@H](Cc2c[nH]c3ccccc23)NC(=O)[C@H](Cc2ccccc2)NC(=O)[C@H](Cc2ccccc2)NC(=O)[C@@H](N)CSSC[C@@H](C(N)=O)NC(=O)[C@H](Cc2ccccc2)NC1=O` [BIM-23268, H-Cys-Phe-Phe-D-Trp-Lys-Thr-Phe-Cys-NH2] (H-CFF[dW]KTFC-NH2; disulfide 1-8), the results for the negative-log Ki (pKi) on human SSTR-5 and at human SSTR-3 were 9.42 and 7.21, respectively.

These data come from patent US7238666B2, “Method of inhibiting fibrosis with a somatostatin agonist” (Societe de Conseils de Recherches et d'Applications …, priority 1996, dated 2007).
